Assay results as given in US20090131391A1, “INHIBITOR FOR DIFFERENTIATION OF HEMATOPOIETIC PRECURSOR CELLS” (OOO "MBF", priority 2006, published 2009).

What was measured:
[1] = test system: Lewis lung carcinoma (LLC); assay: Lewis lung carcinoma growth index and lung metastases with localized irradiation; assay type: in vivo, mice; conditions: for Average number of lung metastases: day 21, surviving animals
Description: The number of lung metastases was assayed on day 21 in surviving animals.
As in the previous series, tumor cells were injected subcutaneously into right hind leg at 2.0×10^6 cells/mouse (total of 40 mice).

[2] = test system: polychromatophil mouse erythrocytes (line C57 B1); assay: Micronuclei in peripheral polychromatophil erythrocytes after electromagnetic irradiation; assay type: in vivo
Description: Protective properties of 9-phenyl-symmetric-octahydroselenoxanthene against non-ionizing radiation were examined by studying formation of micronuclei in polychromatophil mouse erythrocytes (line C57 B1). Micronuclei of the interphase nucleus are acentric chromosome fragments. Animals were exposed to electromagnetic radiation in millimeter wavelength range, frequency 39.5 GHz, and wavelength 7.5 mm for 1 hour. Flux density was approximately 3 microW/cm^2, which is 300 fold less than levels posing danger of overheating due to field energy absorption to a biological object.
5 mg/kg of 9-phenyl-symmetric-octahydroselenoxanthene was administered to group 1 (n=5) orally in 0.2 ml of oil 7 days prior to irradiation. Group 2 (n=5) received 0.2 ml of oil only and untreated mice were used as controls. Mice were sacrificed 1 day after irradiation and number of micronuclei was assayed in peripheral polychromatophil erythrocytes (150,000 cells per sample).

[3] = test system: colony-forming cells in the spleen, CFC-S; assay: Exogenous spleen colony assay (CFC-S) after agent and gamma-irradiation of donor mice; assay type: in vivo
Description: Assay of effect of various doses of ionizing radiation on hematopoiesis. 950 female mice of two lines—(CBA×C 57 B 1/6) F1 and (DBA×C 57B1/6) F1—were used in this study. Radiation was administered using a radiation therapy machine “Luch-1” utilizing gamma-rays ^60Co at 0.9 Gy/min. 9-phenyl-symmetric-octahydroselenoxanthene was administered orally in doses 1.0, 5.0, 10 and 20 mg/kg in 0.2 ml of oil. Agent was administered 1, 3 or 7 days prior to radiation treatment of 1.5 Gy; bone marrow was then extracted from donor mice, and cell suspension was injected into lethally irradiated (8 Gy) recipient mice of the same line. Colony-forming activity was assayed by number of exogenous spleen colonies when mice were sacrificed on day 9.
300 female mice of line (CBA×C57B1/6) F1 were used in the experiment. Radiation was administered using a radiation therapy machine “Luch-1” utilizing gamma-rays ^60Co at 0.9 Gy/min. 9-phenyl-symmetric-octahydroselenoxanthene was administered orally in doses 1.0, 5.0, 10 and 20 mg/kg in 0.2 ml of oil 7 days prior to radiation treatment at following doses: 1.5, 2.0, 3.0 and 5.0 Gy. Bone marrow was extracted 10-15 minutes after the treatment and the cell suspension was injected into lethally irradiated (8 Gy) recipient mice. Colony-forming activity was assayed by number of exogenous spleen colonies when mice were sacrificed on day 9.

[4] = test system: LLC (Lewis lung carcinoma); assay: Lewis lung carcinoma growth and metastasis with Platidiam (cisplatin) treatment; assay type: in vivo, C57B1/6 mice
[5] = test system: CD34+ cells; assay: Flow cytometry of CD34+ cells in bone marrow and peripheral blood; assay type: in vivo, mouse
Description: The effects of the proposed agent (9-phenyl-symmetric-octahydroselenoxanthene) on mouse hematopoiesis were assayed by flow cytometry. Relative number of CD34+ cells and the density of the antigen were assayed in peripheral blood cells (80,000 cells per sample) and bone marrow cells (40,000 cells per sample). As reported earlier, administration of the proposed agent has no effect on relative number of less differentiated stem cells (CD34+).

[6] = Inhibitor + localized irradiation
[7] = concurrent use with localized irradiation
[8] = Agent administered 1 day prior to analysis, no irradiation
[9] = Agent administered 7 days prior to analysis + irradiation, 1.5 Gy
[10] = Agent administered 7 days prior to analysis, no irradiation

9-phenyl-symmetric-octahydroselenoxanthene
Growth index [1, 6]: 4.6 ± 0.8 | Growth index ([1]; Inhibitor + localized irradiation, 1 day): 1 | Growth index ([1]; Inhibitor + localized irradiation, 4 days): 1.4 ± 0.1 | Growth index ([1]; Inhibitor + localized irradiation, 6 days): 1.7 ± 0.2 | Growth index ([1]; Inhibitor + localized irradiation, 8 days): 1.84 ± 0.3 | Growth index ([1]; Inhibitor + localized irradiation, 11 days): 2.65 ± 0.6 | Average number of lung metastases [1, 6]: 13.4 ± 1.8 | Growth index ([1]; Inhibitor alone): 7.7 ± 1.7 | Growth index ([1]; Inhibitor alone, 1 day): 1 | Growth index ([1]; Inhibitor alone, 4 days): 1.64 ± 0.1 | Growth index ([1]; Inhibitor alone, 6 days): 3.3 ± 0.25 | Growth index ([1]; Inhibitor alone, 8 days): 3.9 ± 0.7 | Growth index ([1]; Inhibitor alone, 11 days): 5.3 ± 0.7 | Average number of lung metastases ([1]; Inhibitor alone): 33.5 ± 2.5 | growth indexes of agent alone versus agent + irradiation ([1]; combination with irradiation): not significantly different | effect on metastasis [1, 7]: does not significantly increase metastasis | protection of tumor cells from effects of radiation [1, 7]: does not protect the tumor cells from effects of radiation | effect on tumor growth ([1]; inhibitor alone vs control): does not affect tumor growth | influence on metastatic processes ([1]; non-irradiated and irradiated tumor-bearing mice, day 21): does not influence metastatic processes significantly | Frequency of micronuclei-containing polychromatophil erythrocytes × 10^3 ([2]; 5 mg/kg orally 7 days prior to electromagnetic irradiation 39.5 GHz, 1 hour, assayed 1 day after irradiation): 6.0 ± 2.10 × 10^3 | protection against non-ionizing radiation ([2]; electromagnetic irradiation): confers protection | cell survival compared with the untreated control ([3]; 5.0 mg/kg 7 days prior, 1.5 Gy): not significantly different | Cell survival relative to the irradiated control ([3]; 5.0 mg/kg 7 days prior, all radiation doses excluding 1.5 Gy (2.0, 3.0, 5.0 Gy)): 2 fold | effect on CFC-S number in donor mice ([3]; 5.0 mg/kg of the agent alone at various time points prior to bone marrow extraction): no effect | Number of colonies formed per 10^5 of bone marrow cells, M ± m ([3]; 5 mg/kg orally, 1 day prior to irradiation 1.5 Gy): 6.4 ± 0.5 per 10^5 of bone marrow cells | Number of colonies formed per 10^5 of bone marrow cells, M ± m ([3]; 5 mg/kg orally, 1 day prior, no irradiation): 12.5 ± 0.6 per 10^5 of bone marrow cells | Number of colonies formed per 10^5 of bone marrow cells, M ± m ([3]; 5 mg/kg orally, 3 days prior to irradiation 1.5 Gy): 9.1 ± 0.5 per 10^5 of bone marrow cells | Number of colonies formed per 10^5 of bone marrow cells, M ± m ([3]; 5 mg/kg orally, 3 days prior, no irradiation): 10.7 ± 0.4 per 10^5 of bone marrow cells | Number of colonies formed per 10^5 of bone marrow cells, M ± m ([3]; 5 mg/kg orally, 7 days prior to irradiation 1.5 Gy (Table 1)): 12.7 ± 0.7 per 10^5 of bone marrow cells | Number of colonies formed per 10^5 of bone marrow cells, M ± m ([3]; 5 mg/kg orally, 7 days prior, no irradiation): 11.1 ± 0.7 per 10^5 of bone marrow cells | persistence of the CFC-S adaptive response ([3]; 5.0 mg/kg, 1.5 Gy): 7 days | increase in CFC-S compared to the irradiated control ([3]; 5.0 mg/kg, 1 day prior to 1.5 Gy (minimal effect)): 2 fold | decrease of the effects of radiation ([3]; 5.0 mg/kg, 7 days prior to 1.5 Gy (maximal effect)): 3 fold | Number of colonies formed per 10^5 of bone marrow cells, M ± m ([3]; 5 mg/kg, 7 days prior to radiation dose 1.5 Gy (Table 2)): 9.2 ± 0.2 per 10^5 of bone marrow cells | Number of colonies formed per 10^5 of bone marrow cells, M ± m ([3]; 5 mg/kg, 7 days prior to radiation dose 2.0 Gy): 3.6 ± 0.3 per 10^5 of bone marrow cells | Number of colonies formed per 10^5 of bone marrow cells, M ± m ([3]; 5 mg/kg, 7 days prior to radiation dose 3.0 Gy): 2.1 ± 0.1 per 10^5 of bone marrow cells | Number of colonies formed per 10^5 of bone marrow cells, M ± m ([3]; 5 mg/kg, 7 days prior to radiation dose 5.0 Gy): 0.6 ± 0.06 per 10^5 of bone marrow cells | effect on tumor growth and number of lung metastases ([4]; administered 30 minutes prior to chemotherapy with Platidiam (cisplatin)): did not exhibit any significant effect | Total CD34+ cells in bone marrow, 10^7, Mean ([5]; Agent administered 1 day prior to analysis + irradiation, 1.5 Gy): 2.1 10^7 | Total CD34+ cells in bone marrow, 10^7, Mean [5, 8]: 4.0 10^7 | Total CD34+ cells per 1 ml of peripheral blood, 10^3, Mean [5, 8]: 6.8 10^3 | Total CD34+ cells in bone marrow, 10^7, Mean [5, 9]: 1.0 10^7 | Total CD34+ cells per 1 ml of peripheral blood, 10^3, Mean [5, 9]: 3.8 10^3 | Total CD34+ cells in bone marrow, 10^7, Mean [5, 10]: 4.0 10^7 | Total CD34+ cells per 1 ml of peripheral blood, 10^3, Mean [5, 10]: 8.0 10^3 | number of more differentiated progenitors ([5]; blood cells, after 7 days): decreases | portion of CD34+ cells on the blood ([5]; blood cells, three experiments): does not change | density of CD34 antigen on the cell surface ([5]; by day 7 after the agent administration, p<0.05): increases | effect on relative number of less differentiated stem cells (CD34+) ([5]; flow cytometry): no effect | effect on differentiation of progenitor cells ([5]; peripheral blood and bone marrow composition after irradiation): blocks differentiation of progenitor cells of the granulocyte/macrophage lineage

N.N.[Cl][Pt][Cl] [Platidiam (cisplatin), cisplatin]
Avg number of lung metastases M ± m ([4]; C57B1/6 mice with LLC): 6.2 ± 0.7 | Tumor mass, g M ± m ([4]; C57B1/6 mice with LLC): 4.5 ± 0.5 g | Tumor volume, sm^3 M ± m ([4]; C57B1/6 mice with LLC): 4.6 ± 0.6 sm^3 | anti-tumor effect (tumor mass and lung metastases) ([4]; C57B1/6 mice with LLC): slight but consistent anti-tumor effect
